Measured values published in PubChem BioAssay (NCI).
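Compound exposure: 48 hours, 5 concentrations, 96-well plates. TGI: concentration producing complete growth inhibition.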

Experiments:
Experiment in all cases: growth of human tumour cells (NCI), 48 h
786-0 renal = test system: 786-0 renal
A498 renal = test system: A498 renal
A549 NSCLC = test system: A549 NSCLC
ACHN renal = test system: ACHN renal
BT-549 breast = test system: BT-549 breast
CAKI-1 renal = test system: CAKI-1 renal
CCRF-CEM leukemia = test system: CCRF-CEM leukemia
COLO 205 colon = test system: COLO 205 colon
DU-145 prostate = test system: DU-145 prostate
EKVX NSCLC = test system: EKVX NSCLC
HCC-2998 colon = test system: HCC-2998 colon
HCT-116 colon = test system: HCT-116 colon
HCT-15 colon = test system: HCT-15 colon
HL-60(TB) leukemia = test system: HL-60(TB) leukemia
HOP-62 NSCLC = test system: HOP-62 NSCLC
HOP-92 NSCLC = test system: HOP-92 NSCLC
HS 578T breast = test system: HS 578T breast
HT29 colon = test system: HT29 colon
IGROV1 ovarian = test system: IGROV1 ovarian
K-562 leukemia = test system: K-562 leukemia
KM12 colon = test system: KM12 colon
LOX IMVI melanoma = test system: LOX IMVI melanoma
M14 melanoma = test system: M14 melanoma
MCF7 breast = test system: MCF7 breast
MDA-MB-231 breast = test system: MDA-MB-231 breast
MDA-MB-435 = test system: MDA-MB-435
MDA-N = test system: MDA-N
MOLT-4 leukemia = test system: MOLT-4 leukemia
NCI-H226 lung = test system: NCI-H226 lung
NCI-H23 lung = test system: NCI-H23 lung
NCI-H460 lung = test system: NCI-H460 lung
NCI/ADR-RES ovarian = test system: NCI/ADR-RES ovarian
OVCAR-3 ovarian = test system: OVCAR-3 ovarian
OVCAR-4 ovarian = test system: OVCAR-4 ovarian
OVCAR-5 ovarian = test system: OVCAR-5 ovarian
OVCAR-8 ovarian = test system: OVCAR-8 ovarian
PC-3 prostate = test system: PC-3 prostate
RPMI-8226 leukemia = test system: RPMI-8226 leukemia
RXF 393 renal = test system: RXF 393 renal
SF-268 CNS = test system: SF-268 CNS
SF-295 CNS = test system: SF-295 CNS
SF-539 CNS = test system: SF-539 CNS
SK-MEL-2 melanoma = test system: SK-MEL-2 melanoma
SK-MEL-28 melanoma = test system: SK-MEL-28 melanoma
SK-MEL-5 melanoma = test system: SK-MEL-5 melanoma
SK-OV-3 ovarian = test system: SK-OV-3 ovarian
SN12C renal = test system: SN12C renal
SNB-19 CNS = test system: SNB-19 CNS
SNB-75 CNS = test system: SNB-75 CNS
SR leukemia = test system: SR leukemia
SW-620 colon = test system: SW-620 colon
T-47D breast = test system: T-47D breast
TK-10 renal = test system: TK-10 renal
U251 CNS = test system: U251 CNS
UACC-257 melanoma = test system: UACC-257 melanoma
UACC-62 melanoma = test system: UACC-62 melanoma
UO-31 renal = test system: UO-31 renal
MALME-3M melanoma = test system: MALME-3M melanoma
NCI-H522 lung = test system: NCI-H522 lung

Measured: TGI

O=c1cc(CN2CCCCC2)[nH]c2c1ccc1nc(CN3CCCCC3)cc(=O)n12
> 100 µM: 786-0 renal | A498 renal | A549 NSCLC | ACHN renal | BT-549 breast | CAKI-1 renal | CCRF-CEM leukemia | COLO 205 colon | DU-145 prostate | EKVX NSCLC | HCC-2998 colon | HCT-116 colon | HCT-15 colon | HL-60(TB) leukemia | HOP-62 NSCLC | HOP-92 NSCLC | HS 578T breast | HT29 colon | IGROV1 ovarian | K-562 leukemia | KM12 colon | LOX IMVI melanoma | M14 melanoma | MCF7 breast | MDA-MB-231 breast | MDA-MB-435 | MDA-N | MOLT-4 leukemia | NCI-H226 lung | NCI-H23 lung | NCI-H460 lung | NCI/ADR-RES ovarian | OVCAR-3 ovarian | OVCAR-4 ovarian | OVCAR-5 ovarian | OVCAR-8 ovarian | PC-3 prostate | RPMI-8226 leukemia | RXF 393 renal | SF-268 CNS | SF-295 CNS | SF-539 CNS | SK-MEL-2 melanoma | SK-MEL-28 melanoma | SK-MEL-5 melanoma | SK-OV-3 ovarian | SN12C renal | SNB-19 CNS | SNB-75 CNS | SR leukemia | SW-620 colon | T-47D breast | TK-10 renal | U251 CNS | UACC-257 melanoma | UACC-62 melanoma | UO-31 renal

N#Cc1nc(N)c(C#N)[nH]1
> 100 µM: 786-0 renal | A498 renal | A549 NSCLC | ACHN renal | BT-549 breast | CAKI-1 renal | CCRF-CEM leukemia | COLO 205 colon | DU-145 prostate | EKVX NSCLC | HCC-2998 colon | HCT-116 colon | HCT-15 colon | HL-60(TB) leukemia | HOP-62 NSCLC | HOP-92 NSCLC | HS 578T breast | HT29 colon | IGROV1 ovarian | K-562 leukemia | KM12 colon | LOX IMVI melanoma | M14 melanoma | MALME-3M melanoma | MCF7 breast | MDA-MB-231 breast | MDA-MB-435 | MDA-N | MOLT-4 leukemia | NCI-H226 lung | NCI-H23 lung | NCI-H460 lung | NCI-H522 lung | NCI/ADR-RES ovarian | OVCAR-3 ovarian | OVCAR-4 ovarian | OVCAR-5 ovarian | OVCAR-8 ovarian | PC-3 prostate | RPMI-8226 leukemia | RXF 393 renal | SF-268 CNS | SF-295 CNS | SF-539 CNS | SK-MEL-2 melanoma | SK-MEL-28 melanoma | SK-MEL-5 melanoma | SK-OV-3 ovarian | SN12C renal | SNB-19 CNS | SNB-75 CNS | SR leukemia | SW-620 colon | T-47D breast | TK-10 renal | U251 CNS | UACC-257 melanoma | UACC-62 melanoma | UO-31 renal

C/C(=N/NC(=S)Nc1ccccc1C)c1ccccn1
29.2 µM: SW-620 colon
12.3 µM: A498 renal
2.56 µM: COLO 205 colon
16.3 µM: SNB-75 CNS
5.7 µM: M14 melanoma
19.5 µM: CAKI-1 renal | PC-3 prostate
8.99 µM: HOP-62 NSCLC
31.8 µM: HT29 colon
18.1 µM: U251 CNS
8.62 µM: NCI/ADR-RES ovarian
14.9 µM: MDA-MB-231 breast
6.46 µM: EKVX NSCLC
12.9 µM: HCT-116 colon | NCI-H522 lung
13.2 µM: RXF 393 renal
18 µM: 786-0 renal
15.6 µM: UO-31 renal
16 µM: BT-549 breast
> 4.64 µM: SR leukemia
20.1 µM: MDA-N
27.2 µM: NCI-H23 lung
15.5 µM: MDA-MB-435
2.31 µM: SK-MEL-5 melanoma
26 µM: HCC-2998 colon
17.4 µM: KM12 colon
18.5 µM: A549 NSCLC | OVCAR-4 ovarian
10.7 µM: OVCAR-5 ovarian
9.32 µM: OVCAR-8 ovarian
12.8 µM: MCF7 breast | SK-MEL-2 melanoma
10.3 µM: ACHN renal
65.3 µM: HS 578T breast
6.51 µM: SN12C renal
9.47 µM: OVCAR-3 ovarian
14.4 µM: CCRF-CEM leukemia
2.08 µM: MOLT-4 leukemia
18.3 µM: HCT-15 colon
8.15 µM: SF-539 CNS
3.4 µM: K-562 leukemia
7.61 µM: NCI-H460 lung
> 55.8 µM: RPMI-8226 leukemia
12.1 µM: IGROV1 ovarian
17 µM: HOP-92 NSCLC
14.8 µM: SK-OV-3 ovarian
11.3 µM: DU-145 prostate
4.27 µM: TK-10 renal
15.7 µM: LOX IMVI melanoma
30.9 µM: SF-268 CNS
23.1 µM: SK-MEL-28 melanoma
5.99 µM: UACC-62 melanoma
1.88 µM: UACC-257 melanoma
3.49 µM: T-47D breast
5.63 µM: SF-295 CNS
2.47 µM: NCI-H226 lung
54.8 µM: SNB-19 CNS
15.9 µM: MALME-3M melanoma
